Literature values in US20160206617A1, “COMPOSITIONS AND THERAPEUTIC METHODS FOR ACCELERATED PLAQUE REGRESSION” (RESVERLOGIX CORP., priority 2013, published 2016).
Where two headings read alike, the source gives them in different places.

Key:
ApoA-I = conditions: in vitro and in vivo
atherosclerosis [1] = conditions: REVERSAL; 2 years; pravastatin 40 mg daily, atorvastatin 80 mg daily
atherosclerosis [2] = conditions: SATURN; 2 years; rosuvastatin 40 mg daily, atorvastatin 80 mg daily
atherosclerosis [3] = tested on: atherosclerosis

| Structure (SMILES) | effect on plasma levels of ApoA-I and HDL (ApoA-I) | median change in PAV (atherosclerosis [1]) | median change in PAV (atherosclerosis [2]) [%] | median change PAV (atherosclerosis [3]; ASTEROID, 2 years, rosuvastatin 40 mg daily, all patients) [%] | median decrease in PAV from baseline (atherosclerosis [3]; ASTEROID, subgroup with average HDL-C during treatment less than 40 mg/dL) [%] | PAV decrease (median change) (atherosclerosis [3]; FIG. 8, rosuvastatin 40 mg without RVX-208, after 104 weeks, below median HDL) [%] |
| --- | --- | --- | --- | --- | --- | --- |
| COc1cc(OC)c2c(=O)[nH]c(-c3cc(C)c(OCCO)c(C)c3)nc2c1 [RVX-208, 2-(4-(2-hydroxyethoxy)-3,5-dimethylphenyl)-5,7-dimethoxyquinazolin-4(3H)-one] | increase plasma levels of ApoA-I and HDL | – | – | – | – | – |
| CC(C)c1c(C(=O)Nc2ccccc2)c(-c2ccccc2)c(-c2ccc(F)cc2)n1CC[C@@H](O)C[C@@H](O)CC(=O)O [atorvastatin] | – | +0.2% | −0.99 | – | – | – |
| CC(C)c1nc(N(C)S(C)(=O)=O)nc(-c2ccc(F)cc2)c1/C=C/[C@@H](O)C[C@@H](O)CC(=O)O [rosuvastatin, (3R,5S,6E)-7-[4-(4-fluorophenyl)-2-(N-methylmethanesulfonamido)-6-(propan-2-yl)pyrimidin-5-yl]-3,5-dihydroxyhept-6-enoic acid] | – | – | −1.22 | −0.79 | −1.3 | 1.30 |
